Conditions: Liquid, Vibrating tube method

CC(C)(C)O [2-methylpropan-2-ol]
Conditions	mass density [kg/m3]
353.15 K, 99 kPa	719
353.15 K, 300 kPa	719.3
353.15 K, 501 kPa	719.6
353.15 K, 897 kPa	720.2
353.15 K, 1000 kPa	720.3
353.15 K, 2000 kPa	721.8
353.15 K, 2999 kPa	723.2
353.15 K, 4999 kPa	726.1
353.15 K, 6999 kPa	728.8
353.15 K, 8998 kPa	731.4
353.15 K, 10003 kPa	732.6
353.15 K, 11997 kPa	735.1
353.15 K, 15001 kPa	738.7
353.15 K, 17999 kPa	742.1
353.15 K, 20000 kPa	744.2
353.15 K, 21999 kPa	746.4
353.15 K, 24997 kPa	749.4
353.15 K, 27999 kPa	752.5
353.15 K, 30004 kPa	754.4
353.15 K, 32003 kPa	756.3
353.15 K, 32985 kPa	757.1
353.15 K, 33002 kPa	757.2
353.15 K, 34000 kPa	758.1
353.15 K, 35004 kPa	759
353.15 K, 38477 kPa	762.2
353.15 K, 40002 kPa	763.4
353.15 K, 42035 kPa	765.1
353.15 K, 45022 kPa	767.6
353.15 K, 48092 kPa	770.1
353.15 K, 49989 kPa	771.5
358.15 K, 103 kPa	712.8
358.15 K, 293 kPa	713.1
358.15 K, 498 kPa	713.4
358.15 K, 899 kPa	714
358.15 K, 1003 kPa	714.2
358.15 K, 2008 kPa	715.7
358.15 K, 3003 kPa	717.3
358.15 K, 5003 kPa	720.2
358.15 K, 7003 kPa	723
358.15 K, 9001 kPa	725.8
358.15 K, 9998 kPa	727.1
358.15 K, 12010 kPa	729.7
358.15 K, 14999 kPa	733.3
358.15 K, 18040 kPa	736.9
358.15 K, 19997 kPa	739.1
358.15 K, 21995 kPa	741.3
358.15 K, 25017 kPa	744.5
358.15 K, 27994 kPa	747.6
358.15 K, 29991 kPa	749.6
358.15 K, 32001 kPa	751.5
358.15 K, 32997 kPa	752.5
358.15 K, 33015 kPa	752.5
358.15 K, 34056 kPa	753.5
358.15 K, 35075 kPa	754.4
358.15 K, 37998 kPa	757
358.15 K, 40001 kPa	758.8
358.15 K, 42007 kPa	760.6
358.15 K, 45002 kPa	763.1
358.15 K, 47995 kPa	765.5
358.15 K, 50001 kPa	767
363.15 K, 299 kPa	706.4
363.15 K, 502 kPa	706.8
363.15 K, 901 kPa	707.4
363.15 K, 1002 kPa	707.6
363.15 K, 2001 kPa	709.2
363.15 K, 3005 kPa	710.8
363.15 K, 5002 kPa	713.9
363.15 K, 7023 kPa	716.9
363.15 K, 9001 kPa	719.7
363.15 K, 10009 kPa	721.1
363.15 K, 12038 kPa	723.8
363.15 K, 14998 kPa	727.6
363.15 K, 18000 kPa	731.3
363.15 K, 20033 kPa	733.7
363.15 K, 22005 kPa	735.9
363.15 K, 25000 kPa	739.2
363.15 K, 28009 kPa	742.4
363.15 K, 30011 kPa	744.4
363.15 K, 32033 kPa	746.5
363.15 K, 32982 kPa	747.4
363.15 K, 33012 kPa	747.4
363.15 K, 34035 kPa	748.4
363.15 K, 34999 kPa	749.3
363.15 K, 37998 kPa	752.1
363.15 K, 39147 kPa	753.2
363.15 K, 40009 kPa	753.9
363.15 K, 41998 kPa	755.7
363.15 K, 44999 kPa	758.4
363.15 K, 47996 kPa	760.9
363.15 K, 49998 kPa	762.5
363.15 K, 52002 kPa	764.2
363.15 K, 55003 kPa	766.6
363.15 K, 57998 kPa	768.9
363.15 K, 59999 kPa	770.4
363.16 K, 38458 kPa	752.5

From the NIST ThermoML archive (doi:10.1021/acs.jced.5b00934)
